Assay results reported in patent US12290510B2, “Polyvalent derivatives of emoxypine” (Riesner Verwaltungs GMBH, priority 2019, dated 2025).
“And” between values parts separate entries of the source, which are not always exact repeats. Equal values may be shown once.

Columns and labels:
α-synuclein fibrils [1] = biological target: T1, α-synuclein fibrils (Homo sapiens, UniProt P37840); assay: Disaggregation of α-synuclein fibrils, thioflavin T (ThT) fluorescence emission at 482 nm; assay type: biochemical
Description: FIG. 1A depicts emission intensity of ThT at 482 nm (λexc=450 nm), in the presence of α-synuclein amyloids fibrils, with and without MHP-tren triimine (r70, light blue trace and yellow trace, respectively) from 1 minute to 3 days (72 h), where the bars from left to right in each set of histograms represents: control ThT; MHP tren-triimine; Aggregates+ThT+MHP tren-triimine; control ThT+MHP tren-triimine; and Aggregates+ThT, respectively.
FIG. 2 depicts emission intensity of ThT at 482 nm (λexc=450 nm), in the presence of α-synuclein amyloids fibrils, using Emoxypine r200, Emoxypine r100, MHP-tren triimine (also known as tri imino-emoxypine) r70 (light blue trace and yellow trace, respectively) from 1 minute to 3 days (72 h), where the bars from left to right in each set of histograms represents: α-synuclein+Emoxypine r200; α-synuclein+Emoxypine r100; and α-synuclein+MHP tren-triimine r70, respectively. The far leftmost bar of the graph, titled “Before addition of SOM” represents a sample without emoxypine or MHP tren-triimine, i.e. with 100% of α-synuclein aggregates left.
Disaggregation of α-synuclein fibrils using MHP-tren triimine (i.e., tri imino-emoxypine) was studied. The ratio of MHP-tren triimine:α-synuclein was 70 (r70).
Fluorescence measurements were performed by comparing the emission of thiovlavin T (ThT) in the presence of aggregates, without and with MHP-tren triimine at different times after the addition of MHP-tren triimine, from one minute to several days (λ emission of interest=482 nm, λ excitation=450 nm). Fluorescent measurements were also performed by comparing the emission of thiovlavin T (ThT) in the presence of aggregates and either emoxypine or MHP-tren triimine. The results (see, FIG. 1A-1B, FIG. 2 and Tables 1-2, below) show higher solubilization percentages using MHP-tren triimine as compared to emoxypine. […] The long-term efficiency of the triimine molecule is therefore better than that of its triamide analogue.

α-synuclein fibrils [2] = biological target: T1, α-synuclein fibrils; assay: Scanning electron microscope (SEM) images of α-synuclein fibrils without and with the triimine; conditions: sample with the triimine molecule (FIG. 3B) vs “superaggregated” structures without (FIG. 3A)

Cc1ccc(O)c(/C=N/CCN(CC/N=C/c2nc(C)ccc2O)CC/N=C/c2nc(C)ccc2O)n1 [MHP-tren triimine, tri imino-emoxypine]
Percentage of solubilization (α-synuclein fibrils [1]; MHP-tren triimine:α-synuclein ratio 70 (r70), 1 min after addition): 27% | Percentage of solubilization (α-synuclein fibrils [1]; r70, 30 min after addition): 47.1% and 57% | Percentage of solubilization (α-synuclein fibrils [1]; r70, 1 h after addition): 71% | Percentage of solubilization (α-synuclein fibrils [1]; r70, 24 h after addition): 72.8% and 73% | Percentage of solubilization (α-synuclein fibrils [1]; r70, 48 h after addition): 79.5% and 79% | Percentage of solubilization (α-synuclein fibrils [1]; r70, 72 h (3 days) after addition): 86% and 86.1% | Appearance of α-synuclein sample in SEM images (α-synuclein fibrils [2]): no apparent fiber or big aggregates-only small dots are visible

CCc1nc(C)ccc1O [Emoxypine, emoxypine]
Percent of Solubilization (α-synuclein fibrils [1]; r100, 1 min): 50% | Percent of Solubilization (α-synuclein fibrils [1]; r100, 30 min): 59% | Percent of Solubilization (α-synuclein fibrils [1]; r100, 1 h): 48% | Percent of Solubilization (α-synuclein fibrils [1]; r100, 24 h): 53% | Percent of Solubilization (α-synuclein fibrils [1]; r100, 48 h): 49% | Percent of Solubilization (α-synuclein fibrils [1]; r100, 72 h): 62% | Percent of Solubilization (α-synuclein fibrils [1]; r200, 1 min): 69% | Percent of Solubilization (α-synuclein fibrils [1]; r200, 30 min): 65% | Percent of Solubilization (α-synuclein fibrils [1]; r200, 1 h): 61% | Percent of Solubilization (α-synuclein fibrils [1]; r200, 24 h): 60% | Percent of Solubilization (α-synuclein fibrils [1]; r200, 48 h): 61% | Percent of Solubilization (α-synuclein fibrils [1]; r200, 72 h): 63%
